Data set [1] concerns p53 responsive β-lactamase reporter in HCT116 cells. The data set can be described thus: p53 beta-lactamase reporter gene cellular functional assay. The format is cell-based. The settings on record: p53 reporter assay, HCT116, read-out: Cellular (µM), cellular activity (EC50). As to the method:
HCT116 cells were stably transfected with a p53 responsive β-lactamase reporter and were seeded into a 384-well plate at a density of 8000 cells per well. Cells were maintained in McCoy’s 5A Medium with 10% fetal bovine serum (FBS), Blasticidin, and Penicillin/Streptomycin. The cells were incubated overnight, followed by removal of cell growth media and replacement with Opti-MEM either containing 0% FBS or 10% FBS. […] The final working concentration of DMSO was 0.5%. β-lactamase activity was detected using the ToxBLAzer Dual Screen (Invitrogen), as per the manufacturer’s instructions. Measurements were made using the Envision multiplate reader (Perkin–Elmer).

Data set [2] in a line: Circular dichroism (CD) α-helicity. Type of data set: physicochemical. The settings on record: Table 2; CD of free peptide, 25 °C, 1 mM Hepes pH 7.4, 5% methanol. How it is done:
A total of 5 µL of the 10 mM stock peptide was mixed with 45 µL of 100% methanol, and dried for 2 h in the SpeedVac concentrator (Thermo Scientific). The dried peptide was reconstituted in a buffer (1 mM Hepes pH 7.4 and 5% methanol) to a concentration of 1 mM. The peptide sample was placed in a quartz cuvette with a path length of 0.2 cm. The peptide concentration was determined by the absorbance of the peptide at […]. The CD spectrum was recorded from 300 to 190 nm using the Chirascan-plus qCD machine (Applied Photophysics, Surrey, UK), at 25 °C. All experiments were done in duplicates. The CD spectrum was converted to mean residue ellipticity, before deconvolution and estimation of the secondary structure components of the peptide using the CDNN software (distributed by Applied Photophysics).
In general terms: CD spectra are sensitive to the conformation of chiral molecules.

In data set [3] the target is T1, human Mdm2 1–125 (Homo sapiens, UniProt Q00987).
T1 construct: GST (N); His6 (internal); TEV cleavage site ENLYFQG (internal); made in house; host or cells: Escherichia coli BL21 (DE3) Rosetta T1R
T1 sequence (Q00987 with tags, fused parts or gaps): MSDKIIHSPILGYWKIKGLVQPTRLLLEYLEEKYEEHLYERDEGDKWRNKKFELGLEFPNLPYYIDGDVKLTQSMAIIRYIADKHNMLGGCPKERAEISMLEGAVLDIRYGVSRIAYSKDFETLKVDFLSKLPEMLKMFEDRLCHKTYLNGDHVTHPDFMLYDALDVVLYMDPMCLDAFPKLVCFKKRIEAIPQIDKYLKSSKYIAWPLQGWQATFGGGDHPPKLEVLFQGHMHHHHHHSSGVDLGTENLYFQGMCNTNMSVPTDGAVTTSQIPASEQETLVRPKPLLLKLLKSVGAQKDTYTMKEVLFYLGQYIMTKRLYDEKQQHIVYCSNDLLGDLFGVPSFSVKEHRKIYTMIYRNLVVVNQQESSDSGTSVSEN
As to the kind of experiment: Mdm2 binding assay (competitive fluorescence anisotropy/polarization). The settings on record: Table 1; competitive fluorescence polarization; read-out: Mdm2 (nM), Mdm2 binding (Kd). As to the method: The TEV (tobacco etch virus) cleavage site was changed from ENLYFQS to ENLYFQG to give a fusion protein with the following sequence:
Titrations were carried out with the concentration of Mdm2 held constant at 250 nM and the labeled peptide at 50 nM. The competing molecules were then titrated against the complex of the FAM-labeled peptide and protein. Apparent Kd values were determined by fitting the experimental data to the equations shown below:(2) r=r0+(rb−r0)×2(d^2−3e)cos(θ/3)−9/3Kd1+2(d^2−3e)cos(θ/3)−dd=Kd1+Kd2+[L]st+[L]t−[P]te=([L]t−[P]t)Kd1+([L]st−[P]t)Kd2+Kd1Kd2f=−Kd1Kd2[P]tθ=arcos[−2d^3+9de−27f/2(d^2−3e)^3] where [L]st and [L]t denote labeled ligand and total unlabeled ligand input concentrations, respectively. Kd2 is the dissociation constant of the interaction between the unlabeled ligand and the protein. In all competition experiments, it was assumed that [P]t > [L]st, otherwise considerable amounts of free labeled ligand would always be present and would interfere with measurements. Kd1 is the apparent Kd for the labeled peptide used and was experimentally determined as described in the previous paragraph. The FAM-labeled peptide was dissolved in dimethyl sulfoxide (DMSO) at 1 mM and diluted into the experimental buffer. Readings were carried out with an Envision Multilabel Reader (PerkinElmer). Experiments were carried out in PBS (2.7 mM KCl, 137mM NaCl, 10 mM Na2HPO4, and 2 mM KH2PO4 (pH 7.4)) and 0.1% Tween 20 buffer. All titrations were carried out in triplicate. Curve-fitting was carried out using Prism 4.0 (GraphPad). […] Negative control titrations of the ligands under investigation were also carried out with the fluorescently labeled peptide (in the absence of Mdm2) to ensure no interactions were occurring between the ligands and the FAM-labeled peptide.
Background: Polarisation of emitted light reports the rotation of a fluorescent probe.

Read-outs that look alike come from different tables or passages of the source. Bridge positions count the residues as written; N and C are the ends. Square brackets hold non-standard residues; d marks the D form. Peptide text beside a SMILES is read from it. Lys(N3) = [N-]=[N+]=NCCCC[C@H](N)C(=O)O; R8 = C=CCCCCCC[C@@](C)(N)C(=O)O; Cba = N[C@@H](CC1CCC1)C(=O)O; S5 = C=CCCC[C@](C)(N)C(=O)O; Aib = CC(C)(N)C(=O)O; βAla = NCCC(=O)O

By EC50 is commonly meant the concentration needed to bring the measured effect to its halfway point. The Kd is the free concentration of one partner at which half of the binding sites on the other are occupied at equilibrium, for simple one-to-one binding.

As for `CC(=O)N[C@@H](CCCCN=[N+]=[N-])C(=O)NCCC(=O)N[C@@H](CC(C)C)C(=O)N[C@H](C(=O)N[C@@H](Cc1ccccc1)C(=O)N[C@]1(C)CCCCCCC=CCCC[C@@](C)(C(=O)N[C@@H](CO)C(=O)N[C@@H](C)C(=O)N[C@@H](C)C(N)=O)NC(=O)[C@H](CC2CCC2)NC(=O)[C@H](CCC(N)=O)NC(=O)C(C)(C)NC(=O)[C@H](Cc2c[nH]c3ccccc23)NC(=O)[C@H](Cc2ccc(O)cc2)NC(=O)[C@H](CCC(=O)O)NC1=O)[C@@H](C)O` [A8(Aib)], in data set [1] (Table 2), the EC50 worked out at 1.5 µM. Besides, in data set [2], the “Helicity (%)” value was found to be 37.5%.
Consider `CC(=O)N[C@@H](CCCCN=[N+]=[N-])C(=O)NCCC(=O)N[C@@H](CC(C)C)C(=O)N[C@H](C(=O)N[C@@H](Cc1ccccc1)C(=O)N[C@]1(C)CCCCCCC=CCCC[C@@](C)(C(=O)N[C@@H](C)C(=O)NC(C)(C)C(=O)N[C@@H](C)C(N)=O)NC(=O)[C@H](CC2CCC2)NC(=O)[C@H](CCC(N)=O)NC(=O)[C@H](C)NC(=O)[C@H](Cc2c[nH]c3ccccc23)NC(=O)[C@H](Cc2ccc(O)cc2)NC(=O)[C@H](CCC(=O)O)NC1=O)[C@@H](C)O` [A13(Aib)] (Ac-[Lys(N3)][βAla]LTF[R8]EYWAQ[Cba][S5]A[Aib]A-NH2; staple 6-13), for which, in data set [1] (Table 2), the 50% effective concentration (EC50) stood at 0.59 µM. The “Helicity (%)” value in data set [2] was 34.4%.
For `CC(=O)N[C@@H](CCCCN=[N+]=[N-])C(=O)NCCC(=O)N[C@@H](CC(C)C)C(=O)N[C@H](C(=O)N[C@@H](Cc1ccccc1)C(=O)N[C@]1(C)CCCCCCC=CCCC[C@@](C)(C(=O)N[C@@H](CO)C(=O)N[C@@H](C)C(=O)N(C)[C@@H](C)C(N)=O)NC(=O)[C@H](CC2CCC2)NC(=O)[C@H](CCC(N)=O)NC(=O)[C@H](C)NC(=O)[C@H](Cc2c[nH]c3ccccc23)NC(=O)[C@H](Cc2ccc(O)cc2)NC(=O)[C@H](CCC(=O)O)NC1=O)[C@@H](C)O` [A14(N-methyl L-Ala)] the same measures were 0.71 µM and 47.5%.
Regarding `CC(=O)N[C@@H](CC(C)C)C(=O)N[C@H](C(=O)N[C@@H](Cc1ccccc1)C(=O)N[C@]1(C)CCCCCCC=CCCC[C@@](C)(C(=O)N[C@@H](CO)C(=O)N[C@@H](C)C(=O)N[C@@H](C)C(N)=O)NC(=O)[C@@H](CC2CCC2)NC(=O)[C@H](CC(C)C)NC(=O)[C@H](CCC(N)=O)NC(=O)[C@H](Cc2c[nH]c3ccccc23)NC(=O)[C@H](Cc2ccc(O)cc2)NC(=O)[C@H](CCC(=O)O)NC1=O)[C@@H](C)O` [Cba10(D-Cba)], in data set [1] (Table 1), the concentration giving a half-maximal response (EC50) was 8.1 µM. Besides, the Kd in data set [3] was found to be 1650 nM.
As for `CC(=O)N[C@@H](CCCCN=[N+]=[N-])C(=O)NCCC(=O)NC(C)(C)C(=O)N[C@H](C(=O)N[C@@H](Cc1ccccc1)C(=O)N[C@]1(C)CCCCCCC=CCCC[C@@](C)(C(=O)N[C@@H](CO)C(=O)N[C@@H](C)C(=O)N[C@@H](C)C(N)=O)NC(=O)[C@H](CC2CCC2)NC(=O)[C@H](CCC(N)=O)NC(=O)[C@H](C)NC(=O)[C@H](Cc2c[nH]c3ccccc23)NC(=O)[C@H](Cc2ccc(O)cc2)NC(=O)[C@H](CCC(=O)O)NC1=O)[C@@H](C)O` [L1(Aib)], in data set [1] (Table 2), the EC50 came to 0.49 µM. Further, in data set [2], the “Helicity (%)” value was determined as 42.7%.
In the same order, the values of `CC(=O)N[C@@H](CCCCN=[N+]=[N-])C(=O)NCCC(=O)N(C)[C@@H](C)C(=O)N[C@H](C(=O)N[C@@H](Cc1ccccc1)C(=O)N[C@]1(C)CCCCCCC=CCCC[C@@](C)(C(=O)N[C@@H](CO)C(=O)N[C@@H](C)C(=O)N[C@@H](C)C(N)=O)NC(=O)[C@H](CC2CCC2)NC(=O)[C@H](CCC(N)=O)NC(=O)[C@H](C)NC(=O)[C@H](Cc2c[nH]c3ccccc23)NC(=O)[C@H](Cc2ccc(O)cc2)NC(=O)[C@H](CCC(=O)O)NC1=O)[C@@H](C)O` [L1(N-methyl L-Ala)] are 1.49 µM and 47.2%.
For `CC(=O)N[C@@H](CCCCN=[N+]=[N-])C(=O)NCCC(=O)N(C)[C@@H](CC(C)C)C(=O)N[C@H](C(=O)N[C@@H](Cc1ccccc1)C(=O)N[C@]1(C)CCCCCCC=CCCC[C@@](C)(C(=O)N[C@@H](CO)C(=O)N[C@@H](C)C(=O)N[C@@H](C)C(N)=O)NC(=O)[C@H](CC2CCC2)NC(=O)[C@H](CCC(N)=O)NC(=O)[C@H](C)NC(=O)[C@H](Cc2c[nH]c3ccccc23)NC(=O)[C@H](Cc2ccc(O)cc2)NC(=O)[C@H](CCC(=O)O)NC1=O)[C@@H](C)O` [L1(N-methyl L-Leu)] the same measures were 0.46 µM and 32.6%.
`CC(=O)N[C@@H](CC(C)C)C(=O)N[C@H](C(=O)N[C@@H](Cc1ccccc1)C(=O)N[C@]1(C)CCCCCCC=CCCC[C@@](C)(C(=O)N[C@@H](CO)C(=O)N[C@@H](C)C(=O)N[C@@H](C)C(N)=O)NC(=O)[C@H](CC2CCC2)NC(=O)[C@H](CC(C)C)NC(=O)[C@H](CCC(N)=O)NC(=O)[C@H](C)NC(=O)[C@H](Cc2ccc(O)cc2)NC(=O)[C@H](CCC(=O)O)NC1=O)[C@@H](C)O` [Peptide W7A] (Ac-LTF[R8]EYAQL[Cba][S5]SAA-NH2; staple 4-11): the EC50 in data set [1] (Table 1) came to 8.8 µM. Further, the equilibrium dissociation constant (Kd) in data set [3] was 5090 nM.
For `CC(=O)N[C@@H](CCCCN=[N+]=[N-])C(=O)NCCC(=O)N[C@@H](CC(C)C)C(=O)N[C@H](C(=O)N[C@@H](Cc1ccccc1)C(=O)N[C@]1(C)CCCCCCC=CCCC[C@@](C)(C(=O)N[C@@H](CO)C(=O)N[C@@H](C)C(=O)N[C@@H](C)C(N)=O)NC(=O)[C@H](CC2CCC2)NC(=O)C(C)(C)NC(=O)[C@H](C)NC(=O)[C@H](Cc2c[nH]c3ccccc23)NC(=O)[C@H](Cc2ccc(O)cc2)NC(=O)[C@H](CCC(=O)O)NC1=O)[C@@H](C)O` [Q9(Aib)], in data set [1] (Table 2), the EC50 came out at 0.25 µM. For the same compound, in data set [2], the “Helicity (%)” value amounted to 28%.
Turning to `CC(=O)N[C@@H](CCCCN=[N+]=[N-])C(=O)NCCC(=O)N[C@@H](CC(C)C)C(=O)N[C@H](C(=O)N[C@@H](Cc1ccccc1)C(=O)N[C@]1(C)CCCCCCC=CCCC[C@@](C)(C(=O)NC(C)(C)C(=O)N[C@@H](C)C(=O)N[C@@H](C)C(N)=O)NC(=O)[C@H](CC2CCC2)NC(=O)[C@H](CCC(N)=O)NC(=O)[C@H](C)NC(=O)[C@H](Cc2c[nH]c3ccccc23)NC(=O)[C@H](Cc2ccc(O)cc2)NC(=O)[C@H](CCC(=O)O)NC1=O)[C@@H](C)O` [S12(Aib)], the EC50 in data set [1] (Table 2) was 0.25 µM. The “Helicity (%)” value in data set [2] was 37.3%.
As to `CC(=O)N[C@@H](CCCCN=[N+]=[N-])C(=O)NCCC(=O)N[C@@H](CC(C)C)C(=O)NC(C)(C)C(=O)N[C@@H](Cc1ccccc1)C(=O)N[C@]1(C)CCCCCCC=CCCC[C@@](C)(C(=O)N[C@@H](CO)C(=O)N[C@@H](C)C(=O)N[C@@H](C)C(N)=O)NC(=O)[C@H](CC2CCC2)NC(=O)[C@H](CCC(N)=O)NC(=O)[C@H](C)NC(=O)[C@H](Cc2c[nH]c3ccccc23)NC(=O)[C@H](Cc2ccc(O)cc2)NC(=O)[C@H](CCC(=O)O)NC1=O` [T2(Aib)], the EC50 in data set [1] (Table 2) was 2.9 µM. Besides, the “Helicity (%)” value in data set [2] came out at 38.3%.
On to `CC(=O)N[C@@H](CCCCN=[N+]=[N-])C(=O)NCCC(=O)N[C@@H](CC(C)C)C(=O)N(C)[C@H](C(=O)N[C@@H](Cc1ccccc1)C(=O)N[C@]1(C)CCCCCCC=CCCC[C@@](C)(C(=O)N[C@@H](CO)C(=O)N[C@@H](C)C(=O)N[C@@H](C)C(N)=O)NC(=O)[C@H](CC2CCC2)NC(=O)[C@H](CCC(N)=O)NC(=O)[C@H](C)NC(=O)[C@H](Cc2c[nH]c3ccccc23)NC(=O)[C@H](Cc2ccc(O)cc2)NC(=O)[C@H](CCC(=O)O)NC1=O)[C@@H](C)O` [T2(N-methyl L-Thr)], for which the EC50 in data set [1] (Table 2) was 7.7 µM. The “Helicity (%)” value in data set [2] came to 38.2%.

For the origin of these results see PMC6632053, “Incorporation of Putative Helix-Breaking Amino Acids in the Design of Novel Stapled Peptides: Exploring Biophysical and Cellular Permeability Properties” (Molecules, 2019).
